Blank lines part the entries; values can stand above or below the molecule they belong to.
Key:
topoisomerase I = target: T1, topoisomerase I (Homo sapiens, UniProt P11387); experiment: Topo I unwinding assay (pBR322 plasmid DNA, cell nucleus extract); assay type: biochemical; details: for concentration for in vitro topoisomerase I inhibition as multiple of the IC50 of tumor growth: multiple of the concentration inhibiting tumor cell growth by 50%
T1 construct: 160 ng of cell nucleus extract with the topoisomerase I present therein; endogenous in cells; host or cells: tumor cell lines (cell nucleus extract)
T1 sequence (P11387 1-765): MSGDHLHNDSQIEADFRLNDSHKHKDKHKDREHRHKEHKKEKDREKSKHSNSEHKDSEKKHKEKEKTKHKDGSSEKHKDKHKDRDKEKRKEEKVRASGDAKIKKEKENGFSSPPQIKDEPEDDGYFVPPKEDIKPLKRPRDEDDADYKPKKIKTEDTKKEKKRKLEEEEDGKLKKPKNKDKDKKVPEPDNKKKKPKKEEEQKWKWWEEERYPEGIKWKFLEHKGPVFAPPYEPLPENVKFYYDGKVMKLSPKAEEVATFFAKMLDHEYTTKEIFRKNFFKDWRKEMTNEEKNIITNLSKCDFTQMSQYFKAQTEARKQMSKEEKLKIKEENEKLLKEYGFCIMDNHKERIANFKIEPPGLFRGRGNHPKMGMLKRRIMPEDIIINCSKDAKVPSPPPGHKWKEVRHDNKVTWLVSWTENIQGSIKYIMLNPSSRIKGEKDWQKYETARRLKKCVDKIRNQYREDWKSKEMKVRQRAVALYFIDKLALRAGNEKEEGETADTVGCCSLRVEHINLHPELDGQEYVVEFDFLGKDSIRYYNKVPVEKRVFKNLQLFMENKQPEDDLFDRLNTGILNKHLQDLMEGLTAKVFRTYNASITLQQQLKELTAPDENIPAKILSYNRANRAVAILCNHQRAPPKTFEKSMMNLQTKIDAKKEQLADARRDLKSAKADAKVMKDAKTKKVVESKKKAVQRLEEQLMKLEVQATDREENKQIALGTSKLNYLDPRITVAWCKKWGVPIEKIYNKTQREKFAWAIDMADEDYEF
Description: The effect of the substance (Ic′) on topoisomerase I is investigated by carrying out the so-called Topo I unwinding assay. The assay is based on an ATP-independent unwinding of twisted pBR322 plasmid DNA dimers by topoisomerase I. The two different topological forms of the plasmid DNA, the twisted form and unwound, relaxed form, are separated in this investigation by means of an agarose gel. The enzyme topoisomerase I is obtained for this purpose from cell nucleus extracts of the tumor cell lines.
Cell nucleus extracts are obtained by the method of Sullivan with the modifications of Danks et al.

[1] = system: HCT8 SN38 cells (SN38 resistant); experiment: SRB assay, HCT8 SN38; assay type: cell-based, human
Experimental: (§5) The sensitivity of the cell lines to the substance (Ic′) is determined in a so-called sulforhodamine B (SRB) assay.
(§6) The concentration of substance (Ic′) which inhibits cell growth by 50% (IC50, determined from semilogarithmic dose versus effect plots) are indicated.

[2] = system: H460 WT bronchial carcinoma cells; experiment: DNA double-strand breaks in [14C]d-thymidine-labeled cells, H460 WT; assay type: cell-based, human; details: up to 10 times the IC50 concentration, 6 hours
Experimental: (§1) DNA isolated after treatment of the cells for various times with substance (Ic′) is for this purpose analyzed by gel electrophoresis.
(§2) Determination of the DNA double-strand breaks is performed on ^14C-labeled DNA. For this purpose, [^14C]d-thymidine-labeled cells are treated with various concentrations of substance (Ic′). The DNA is isolated by an adapted method of Chia Chiao et al.
(§3) The DNA fractionated by gel electrophoresis is subsequently stained with ethidium bromide.
(§4) On a transilluminator (302 nm), the intact DNA which has not migrated in the electric field is separated from the fragmented DNA, which has thus migrated into the gel, by extraction. The isolated gel and DNA fragments are liquefied at +80° C. in the presence of hydrochloric acid. After addition of a scintillator it is possible to determine the radioactivity using a liquid scintillation meter (TPI-CARB 2100RT). The measured radioactivity is indicated in […] (cpm).
The results represent averages and their standard deviation from n=3 independent experiments.

[3] = system: HCT8 ICID cells (raltitrexed resistant); experiment: SRB assay, HCT8 ICID; assay type: cell-based, human
Experimental: as §5, §6

[4] = system: HT29 SN38 cells (SN38 resistant); experiment: SRB assay, HT29 SN38; assay type: cell-based, human
Experimental: as §5, §6

[5] = system: MCF-7 24R cells (5-FU resistant); experiment: SRB assay, MCF-7 24R; assay type: cell-based, human
Experimental: (§7) Six unambiguously characterized tumor cell lines of human origin (native cell lines and those converted into resistant subclones) and two non-tumor cell lines are used for further investigations (table 2).
as §5, §6

[6] = system: MCF-7 WT cells (adenocarcinoma of breast); experiment: SRB assay, MCF-7 WT; assay type: cell-based, human
Experimental: as §5, §6

human telomerase = target: T2, human telomerase (Homo sapiens, UniProt O14746); experiment: Telomeric Repeat Amplification Assay (TRAP) ELISA; assay type: biochemical; details: at 50 μg/ml; telomerase from HCT8 WT cells; range 10 to 50 μg/ml tested
T2 construct: human telomerase obtained from cells of a colon carcinoma (HCT8 WT); endogenous in cells; host or cells: HCT8 WT colon carcinoma cells
T2 sequence (O14746 whole entry): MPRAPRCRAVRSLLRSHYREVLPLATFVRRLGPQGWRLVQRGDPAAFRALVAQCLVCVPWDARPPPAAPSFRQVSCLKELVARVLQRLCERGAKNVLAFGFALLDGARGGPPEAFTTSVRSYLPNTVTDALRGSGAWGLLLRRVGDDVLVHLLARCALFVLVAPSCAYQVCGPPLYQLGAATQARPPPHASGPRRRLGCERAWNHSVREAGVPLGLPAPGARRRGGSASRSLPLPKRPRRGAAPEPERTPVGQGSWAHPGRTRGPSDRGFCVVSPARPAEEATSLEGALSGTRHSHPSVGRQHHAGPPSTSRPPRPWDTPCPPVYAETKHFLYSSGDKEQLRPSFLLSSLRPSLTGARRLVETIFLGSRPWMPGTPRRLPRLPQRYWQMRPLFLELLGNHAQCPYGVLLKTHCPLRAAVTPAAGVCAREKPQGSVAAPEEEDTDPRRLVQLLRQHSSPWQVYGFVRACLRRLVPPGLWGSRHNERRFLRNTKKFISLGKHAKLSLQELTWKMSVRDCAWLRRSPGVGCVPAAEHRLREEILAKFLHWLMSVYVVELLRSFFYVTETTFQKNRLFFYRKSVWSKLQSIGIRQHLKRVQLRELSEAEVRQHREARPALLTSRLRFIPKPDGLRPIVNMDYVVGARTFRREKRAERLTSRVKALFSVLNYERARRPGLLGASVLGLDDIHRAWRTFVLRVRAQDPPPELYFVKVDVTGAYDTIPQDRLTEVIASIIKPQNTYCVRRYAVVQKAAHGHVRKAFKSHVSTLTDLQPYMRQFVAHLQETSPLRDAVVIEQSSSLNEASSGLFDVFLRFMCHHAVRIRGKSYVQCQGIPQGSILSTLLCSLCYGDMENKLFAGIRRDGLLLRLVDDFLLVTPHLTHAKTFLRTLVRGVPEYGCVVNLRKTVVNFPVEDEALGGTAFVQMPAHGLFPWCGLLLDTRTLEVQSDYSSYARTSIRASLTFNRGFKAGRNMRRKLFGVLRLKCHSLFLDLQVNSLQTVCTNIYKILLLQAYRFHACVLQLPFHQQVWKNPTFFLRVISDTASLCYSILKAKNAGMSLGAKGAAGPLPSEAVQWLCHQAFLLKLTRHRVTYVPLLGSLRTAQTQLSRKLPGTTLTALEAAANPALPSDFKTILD
T2 sequence (O60832 whole entry partner): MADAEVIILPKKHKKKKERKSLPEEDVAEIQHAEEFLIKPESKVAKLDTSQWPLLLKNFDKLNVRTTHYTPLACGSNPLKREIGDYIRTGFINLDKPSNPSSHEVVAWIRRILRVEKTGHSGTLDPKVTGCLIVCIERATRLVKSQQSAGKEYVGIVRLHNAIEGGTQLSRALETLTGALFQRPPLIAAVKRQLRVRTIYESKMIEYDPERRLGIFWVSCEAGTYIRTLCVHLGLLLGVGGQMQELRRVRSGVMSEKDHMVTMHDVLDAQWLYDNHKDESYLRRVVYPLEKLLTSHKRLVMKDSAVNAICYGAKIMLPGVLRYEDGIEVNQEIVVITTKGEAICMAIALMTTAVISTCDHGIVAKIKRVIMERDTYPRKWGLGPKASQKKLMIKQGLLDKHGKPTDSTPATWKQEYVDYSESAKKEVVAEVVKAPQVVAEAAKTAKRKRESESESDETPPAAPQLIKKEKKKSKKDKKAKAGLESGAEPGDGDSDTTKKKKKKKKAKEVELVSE
T2 sequence (Q9NX24 whole entry partner): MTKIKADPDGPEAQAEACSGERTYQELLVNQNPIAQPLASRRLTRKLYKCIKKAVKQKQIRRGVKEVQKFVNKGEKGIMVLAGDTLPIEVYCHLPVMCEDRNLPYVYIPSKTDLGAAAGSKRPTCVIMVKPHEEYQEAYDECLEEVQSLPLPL
T2 sequence (Q9NPE3 whole entry partner): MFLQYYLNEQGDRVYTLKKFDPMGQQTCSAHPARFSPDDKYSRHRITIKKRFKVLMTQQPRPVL
T2 sequence (Q9NY12 whole entry partner): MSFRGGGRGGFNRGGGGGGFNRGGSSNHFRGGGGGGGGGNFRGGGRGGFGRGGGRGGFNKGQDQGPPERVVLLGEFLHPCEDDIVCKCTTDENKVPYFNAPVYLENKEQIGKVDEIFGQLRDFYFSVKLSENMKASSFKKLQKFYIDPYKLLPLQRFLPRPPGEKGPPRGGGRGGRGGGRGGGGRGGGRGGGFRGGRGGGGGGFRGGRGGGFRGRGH
T2 sequence (Q9BUR4 whole entry partner): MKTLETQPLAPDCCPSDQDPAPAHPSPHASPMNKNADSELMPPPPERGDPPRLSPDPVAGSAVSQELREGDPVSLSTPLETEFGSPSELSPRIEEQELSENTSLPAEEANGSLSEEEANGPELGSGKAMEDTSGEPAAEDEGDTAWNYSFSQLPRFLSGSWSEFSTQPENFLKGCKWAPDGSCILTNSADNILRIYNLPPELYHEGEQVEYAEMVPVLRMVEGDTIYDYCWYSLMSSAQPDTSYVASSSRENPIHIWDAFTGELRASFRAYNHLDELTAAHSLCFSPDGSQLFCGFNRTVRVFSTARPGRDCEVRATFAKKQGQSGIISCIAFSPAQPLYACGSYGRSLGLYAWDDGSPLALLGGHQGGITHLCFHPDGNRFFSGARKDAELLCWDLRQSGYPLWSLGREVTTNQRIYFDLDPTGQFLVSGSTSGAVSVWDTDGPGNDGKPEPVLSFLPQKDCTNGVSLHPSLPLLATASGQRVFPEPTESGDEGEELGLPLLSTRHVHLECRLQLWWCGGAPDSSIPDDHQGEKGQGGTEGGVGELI
Experimental: The effect of substance (Ic′) on human telomerase is determined by carrying out the so-called Telomeric Repeat Amplification Assay (TRAP) ELISA, based on the method of N. W. Kim et al.
This method is based on use of the polymerase chain reaction (PCR). This entails, in a first step, a number of (GGTTAG) motifs being attached by means of the telomerase activity to the 3′ end of a biotin-labeled oligonucleotide (TS=telomerase substrate). In a second step, the products extended in this way are amplified by the PCR technique using TS and RP (R=reverse) primers. In this way, a “ladder” of products in increments of 6 bases (initial size=50 nucleotides) is generated. During the amplification, DNP-labeled dCTP is incorporated into the PCR products. Detection and quantification of the synthesized telomerase products using a sandwich ELISA method are a measure of the telomerase enzymatic activity.
The telomerase products carry the biotin-labeled TS primers and bind to the surface of microtiter plates previously coated with streptavidin. An anti-DIG antibody conjugated to POD binds to the […] nucleotides incorporated during the amplification. After addition of the substrate TMB, the telomerase activity is visualized by […] via the onset of the color reaction by the enzyme POD. In this case, the measured absorption is directly proportional to the telomerase activity. […]

[7] = system: MCF-7 AD cells (doxorubicin resistant gp 170+); experiment: SRB assay, MCF-7 AD; assay type: cell-based, human
Experimental: as §7, §5, §6

[8] = system: tumor cell lines (native and resistant subclones) and non-tumor cell lines
Experimental: as §7, §5, §6

[9] = system: A2780 WT cells (adenocarcinoma of ovary); experiment: SRB assay, A2780 WT; assay type: cell-based, human
Experimental: as §7, §5, §6

3T3 mouse fibroblasts = experiment: SRB assay, 3T3; assay type: cell-based; details: 3T3 mouse fibroblasts (non-tumor)
Experimental: as §7, §5, §6

[10] = system: HT29 WT colorectal carcinoma cells; experiment: DNA double-strand breaks, HT29 WT; assay type: cell-based, human
Experimental: as §1, §2, §3, §4

[11] = system: M51 WT cells (carcinoma of stomach); experiment: SRB assay, M51 WT; assay type: cell-based, human; details: mean ± SD of at least three experiments
Experimental: as §7, §5, §6

Taq polymerase = Taq polymerase (Thermus aquaticus, UniProt P19821); experiment: TSR8 template control experiment (DNA polymerase); assay type: biochemical; details: maximum concentration 50 μg/ml
Chain of Taq polymerase (P19821 whole entry): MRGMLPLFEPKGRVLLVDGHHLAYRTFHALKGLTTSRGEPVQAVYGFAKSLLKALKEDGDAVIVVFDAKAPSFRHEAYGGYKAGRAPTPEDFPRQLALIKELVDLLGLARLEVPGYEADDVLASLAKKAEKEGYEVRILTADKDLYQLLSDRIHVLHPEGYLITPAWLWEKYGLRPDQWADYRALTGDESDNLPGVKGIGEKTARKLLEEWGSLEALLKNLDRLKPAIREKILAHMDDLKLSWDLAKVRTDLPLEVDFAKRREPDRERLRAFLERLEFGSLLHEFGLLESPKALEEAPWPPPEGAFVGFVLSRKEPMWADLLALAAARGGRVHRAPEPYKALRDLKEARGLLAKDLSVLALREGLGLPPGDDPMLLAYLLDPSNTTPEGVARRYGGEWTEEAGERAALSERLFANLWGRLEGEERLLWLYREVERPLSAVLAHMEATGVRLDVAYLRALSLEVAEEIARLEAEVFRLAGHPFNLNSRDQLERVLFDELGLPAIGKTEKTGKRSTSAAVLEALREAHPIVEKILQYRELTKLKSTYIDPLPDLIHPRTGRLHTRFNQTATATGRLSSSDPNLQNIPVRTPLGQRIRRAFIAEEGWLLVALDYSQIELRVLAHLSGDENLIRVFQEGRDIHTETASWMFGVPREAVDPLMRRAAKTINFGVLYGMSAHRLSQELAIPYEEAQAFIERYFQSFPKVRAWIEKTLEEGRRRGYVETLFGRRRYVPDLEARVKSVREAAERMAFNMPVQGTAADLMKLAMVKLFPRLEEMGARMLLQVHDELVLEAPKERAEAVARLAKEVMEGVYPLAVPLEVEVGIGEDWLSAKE
Experimental: In order to ensure the effect of substance (Ic′) on telomerase, an effect of substance (Ic′) on DNA polymerase must be ruled out. In a preliminary experiment with TSR8 as internal control, the effect of substance (Ic′) at various concentration levels was ruled out.
Amplification of the TSR8 template depends only on DNA polymerase. Every inhibitor of this enzyme can be detected using the substrate.
The experiment is carried out in triplicates.

[12] = system: HT29 24R cells (5-FU resistant); experiment: SRB assay, HT29 24R; assay type: cell-based, human
Experimental: as §5, §6

[13] = system: HCT8 WT colon carcinoma cells
Experimental: In this case, tumor cells, e.g. colon carcinoma cells (HCT8 WT), are coincubated with both active ingredients in different dosages in each case for 24 hours (FIG. 9). FIG. 9 represents the coincubation experiment on the cytotoxicity with substance (Ic′) and a specific ERK1/2 inhibitor (MAP kinase inhibitor). HCT8 WT cells were coincubated. The points shown indicate the corresponding ratios (% of the respective IC50 concentration) of the two active ingredients to one another.

[14] = system: A2780 DX5 cells (doxorubicin resistant gp 170+); experiment: SRB assay, A2780 DX5; assay type: cell-based, human; details: A2780 DX5, doxorubicin resistant gp 170+
Experimental: as §7, §5, §6

[15] = system: H460 WT cells (large-cell lung carcinoma); experiment: SRB assay, H460 WT; assay type: cell-based, human
Experimental: as §7, §5, §6

[16] = system: M51 DDP cells (cisplatin resistant); experiment: SRB assay, M51 DDP; assay type: cell-based, human
Experimental: as §5, §6

[17] = system: ERK1/2 protein (MAP kinase); experiment: Western blot analysis of ERK1/2 phosphorylation; assay type: cell-based, human; details: HCT8 WT, detectable even at a dose corresponding to the IC50
Description: Phosphorylation of certain signal transduction pathways plays an essential role in the regulation of cell growth and gene expression. The protein ERK1/2 (MAP kinase) belongs to the MAP kinase signal transduction pathway.
Treatment of human colon carcinoma cells (HCT8 WT) with substance (Ic′) leads to phosphorylation of this protein, which is detected in a Western blot analysis (FIG. 8).

[18] = system: HCT8 WT bowel cancer cells; experiment: Cell cycle analysis by flow cytometry (BrdU/PI); assay type: cell-based, human; details: IC50 concentration, 24 hours
Experimental: Flow cytometric investigations by an adapted method of Tsugita M. et al. are used for the analysis.
Exponentially growing HCT8 WT bowel cancer cells are treated with substance (Ic′) with the determined IC50 concentration for 24 hours, and then the cells are incubated with BrdU. The cells fixed with methanol are subjected to a treatment with a detergent (Triton X-100/HCl) in order to denature the DNA strands. After incubation with the fluorescence-labeled antibody (anti-BrdU mAb, FITC-labeled), the second fluorescent dye (PI, propidium iodide) is added.
The DNA content (propidium iodide fluorescence) and the amount of BrdU taken up (FITC fluorescence) are determined using a Coulter flow cytometer (Coulter EPICS XL). Exemplary results are depicted in FIG. 3a and 3b.
FIG. 3a and 3b show BrdU and PI uptakes into the DNA of HCT8 WT cells, untreated (control, […]) and treated with substance (Ic′) (IC50, 24 hours, FIG. 4b). The depicted results are representative of n=3 independent experiments.

[19] = system: MCR-5 diploid embryonic lung fibroblasts; experiment: SRB assay, MCR-5; assay type: cell-based; details: MCR-5 fibroblasts (non-tumor)
Experimental: as §7, §5, §6

[20] = system: A2780 CP2 cells (cisplatin resistant); experiment: SRB assay, A2780 CP2; assay type: cell-based, human
Experimental: as §7, §5, §6

[21] = system: HCT8 WT cells (carcinoma of colon); experiment: SRB assay, HCT8 WT; assay type: cell-based, human
Description: The target cell used is, inter alia, a bowel cancer cell line of human origin (HCT8 WT).

[22] = system: HT29 WT cells (adenocarcinoma of colon); experiment: SRB assay, HT29 WT; assay type: cell-based, human
Experimental: as §5, §6

concentration for in vitro topoisomerase I inhibition as multiple of the IC50 of tumor growth (topoisomerase I): 1000 times
Molecule: CC[C@@]1(O)C(=O)OCc2c1cc1n(c2=O)Cc2cc3c(CN(C)C)c(O)ccc3nc2-1 [topotecan, reference compound]

Molecule: 1-Benzoyl-8,8-dimethyl-2-hydroxy-3,5,7-tris-(3-methyl-2-butenyl)bicyclo[3.3.1]non-2-ene-4,9-dione [Substance (Ic′)]
IC50 [1]: 4.07 ± 0.08 µg/mL
induction of DNA double-strand breaks [2]: induces significant amounts of double-strand breaks
IC50 [3]: 4.44 ± 0.13 µg/mL
inhibition of topoisomerase I activity (topoisomerase I; at 100 μg/ml, 160 ng cell nucleus extract): 100%
concentration for in vitro topoisomerase I inhibition as multiple of the IC50 of tumor growth (topoisomerase I): 20 times
IC50 [4]: 3.50 ± 1.40 µg/mL
IC50 [5]: 3.30 ± 0.51 µg/mL
IC50 [6]: 4.37 ± 0.12 µg/mL
inhibition of human telomerase (human telomerase): Complete inhibition
IC50 [7]: 4.28 ± 0.08 µg/mL
cytotoxicity for the non-tumor cell lines compared with tumor cell lines [8]: considerably less
cross-resistance to the indicated cytostatics ([8]; resistant subclones vs native cell lines, SRB assay): no cross-resistance
IC50 [9]: 9.20 ± 0.82 µg/mL
IC50 (3T3 mouse fibroblasts): >80.0 µg/mL
induction of DNA double-strand breaks [10]: induction of substantial amounts of double-strand breaks
IC50 [11]: 5.70 ± 0.21 µg/mL
inhibition of Taq polymerase (TSR8 template) (Taq polymerase): does not lead to a significant inhibition
IC50 [12]: 5.18 ± 0.76 µg/mL
cytotoxicity on coincubation with a specific ERK1/2 inhibitor (MAP kinase inhibitor) [13]: pronounced synergism
effect of the combination on tumor cell growth ([13]; 30% of IC50 of substance (Ic′) with 30% of IC50 of the specific ERK1/2 inhibitor, HCT8 WT): inhibition of growth
IC50 [14]: 6.75 ± 1.55 µg/mL
IC50 [15]: 4.21 ± 0.91 µg/mL
IC50 [16]: 4.77 ± 0.13 µg/mL
phosphorylation of the ERK1/2 protein [17]: dose-dependent phosphorylation
effect on the cell cycle (BrdU uptake) [18]: inhibition of the synthesis phase
IC50 [19]: 21.73 ± 6.47 µg/mL
IC50 [20]: 6.23 ± 0.12 µg/mL
IC50 [21]: 4.23 ± 0.19 µg/mL
IC50 [22]: 5.25 ± 0.43 µg/mL

Reference: patent publication US7199161B2, “Substituted bicylo[3.3.1]nonan-2,4,9-triones as pharmaceutical active ingredients” (Diagenics International Corporation, priority 2002, dated 2007)
